Our source for the IC50 values is BindingDB's records for patent US12473289 (Amgen, 2025).

The target of this assay is Acyl-CoA (8-3)-desaturase (Homo sapiens, UniProt O60427). The assay can be described thus: Inhibitory Activity using DGLA-CoA and Arachidonyl-CoA Mass Spectrometric Assays. On the procedure: Membrane preparations of D5D-overexpressing HEK293 6E cells were prepared in which the total protein concentration was 5.6 mg/mL.
Sequence of Acyl-CoA (8-3)-desaturase (O60427 whole entry): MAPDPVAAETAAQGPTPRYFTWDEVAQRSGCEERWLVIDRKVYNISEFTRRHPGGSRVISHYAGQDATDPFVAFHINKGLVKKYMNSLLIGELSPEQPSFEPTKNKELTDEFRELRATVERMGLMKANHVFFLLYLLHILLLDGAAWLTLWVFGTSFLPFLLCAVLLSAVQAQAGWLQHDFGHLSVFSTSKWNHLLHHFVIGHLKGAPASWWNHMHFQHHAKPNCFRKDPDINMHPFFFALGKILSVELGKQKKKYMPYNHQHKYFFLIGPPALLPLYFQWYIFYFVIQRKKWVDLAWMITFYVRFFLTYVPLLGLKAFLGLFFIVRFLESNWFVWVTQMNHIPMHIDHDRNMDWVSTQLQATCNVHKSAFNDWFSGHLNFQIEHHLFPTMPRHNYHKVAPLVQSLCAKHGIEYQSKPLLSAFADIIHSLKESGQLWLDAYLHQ

Take `COc1ccn2c(=O)c(-c3ccc(OC(F)(F)F)cc3F)c(C(F)(F)F)nc2c1` [US12473289, Example 1-9]: the midpoint of inhibition, the IC50, lay at 5.9 nM.

Take `COc1ccn2c(=O)c(-c3cnn(-c4cccc(C(F)(F)F)c4)c3)c(C(F)(F)F)nc2c1` [US12473289, Example 1-19]: half-maximal inhibition (IC50) required 345 nM.

Regarding `CSc1ccn2c(=O)c(-c3ccc(OCC(F)(F)F)cc3)c(C(F)(F)F)nc2c1` [US12473289, Example 1-35], the concentration for half-maximal inhibition (IC50) (usually the midpoint of a concentration-inhibition curve) stood at 10.4 nM.

Regarding `COC(=O)c1ccn2c(=O)c(-c3ccc(OCC(F)(F)F)cc3)c(C(F)(F)F)nc2c1` [US12473289, Example 1-36], the 50% inhibitory concentration (IC50) is 199 nM.

`COc1ccn2c(=O)c(-c3ccc(OCC4CC4)cc3)c(C(F)(F)F)nc2n1` [US12473289, Example 1-37] came in with an IC50 of 13.1 nM.

In turn, `COc1ccn2c(=O)c(-c3ccc(OCC(F)(F)F)nc3)c(C(F)(F)F)nc2n1` [US12473289, Example 1-70] registered a half-maximal inhibitory concentration (IC50) of 262 nM.

The molecule `Nc1ccn2c(=O)c(-c3ccc(OCC(F)(F)F)cc3)c(C(F)(F)F)nc2c1` [US12473289, Example 6-2] came in with an IC50 of 6.8 nM.

`O=c1c(-c2cnn(CCC(F)(F)F)c2)c(C(F)(F)F)nc2cc(OCF)ccn12` [US12473289, Example 17-3] showed an IC50 of 29.6 nM.

Regarding `O=c1ccn2c(=O)c(-c3cnn(CC(F)(F)C(F)(F)F)c3)c(C(F)(F)F)[nH]c2c1` [US12473289, Example 18], the IC50 is 132 nM.

`O=c1c(-c2ccc(OCC(F)(F)F)cc2)c(C(F)(F)F)nc2cc(C(F)F)ccn12` [US12473289, Example 32] returned an IC50 of 141 nM.

`COC1=CC2NC(C(F)(F)F)=C(C3C=NC(OCC(F)(F)F)=NC3)C(=O)N2C=C1` (stereo unspecified) [US12473289, Example 37] yielded a half-inhibitory concentration (IC50) of 87.6 nM.

Molecule `O=C1C(C2C=NN(CC(F)(F)C(F)(F)F)C2)=C(C(F)(F)F)NC2C=C(OCF)C=CN12` (stereo unspecified) [US12473289, Example 45] registered an IC50 of 10.1 nM.

With `O=C1C(C2C=NN(CC(F)(F)C(F)(F)F)C2)=C(C(F)(F)F)NC2C=C(OCCl)C=CN12` (stereo unspecified) [US12473289, Example 46], inhibition was half-maximal at 16.6 nM (IC50).

Regarding `O=C1C(C2C=NN(CC(F)(F)C(F)(F)F)C2)=C(C(F)(F)F)NC2C=C(OCF)C=NN12` (stereo unspecified) [US12473289, Example 47], inhibition was half-maximal at 33.5 nM (IC50).

As for `O=C1C(C2C=NN(CC(F)(F)C(F)(F)F)C2)=C(C(F)(F)F)NC2C=C(OCCl)C=NN12` (stereo unspecified) [US12473289, Example 48], it took 119 nM to reach half-maximal inhibition (IC50).

`COc1cc2nc(C(F)(F)F)c(-c3cnn(C[C@@H]4CC4(F)F)c3)c(=O)n2cc1F` [US12473289, Example 72] yielded a half-inhibitory concentration (IC50) of 54.9 nM.
